The experiment deals with T1, tumor necrosis factor receptor type 1 (TNF-R1) (Homo sapiens, UniProt P19438).
T1 sequence (P19438 30-455): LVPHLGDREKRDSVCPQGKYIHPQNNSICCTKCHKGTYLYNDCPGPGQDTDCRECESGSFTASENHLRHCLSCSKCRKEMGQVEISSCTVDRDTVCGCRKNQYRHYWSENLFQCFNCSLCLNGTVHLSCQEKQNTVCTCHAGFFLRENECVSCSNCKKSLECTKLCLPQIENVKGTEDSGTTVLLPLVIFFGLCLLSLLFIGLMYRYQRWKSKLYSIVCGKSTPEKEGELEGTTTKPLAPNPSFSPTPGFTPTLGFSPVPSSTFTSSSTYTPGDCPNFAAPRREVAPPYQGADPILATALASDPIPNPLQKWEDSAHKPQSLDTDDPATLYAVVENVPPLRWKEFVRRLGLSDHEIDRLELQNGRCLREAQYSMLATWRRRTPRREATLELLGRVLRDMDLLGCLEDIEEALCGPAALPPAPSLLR
Put plainly: SPR. It is filed as binding.

For `COc1ccc(C(C)=O)c(O)c1` [paeonol], the affinity, expressed as Kd, was 11.8 µM. This counts as double-digit micromolar.

The values are drawn from PMC9257445 (Journal of Pharmaceutical Analysis, 2021).
